Assay results published in patent US20220288052A1, “COMPOUND FOR COMBINATION TREATMENT” (priority 2019, published 2022).

What was measured:
[1] = system: nialamide pre-treated mice; assay: Nialamide-induced 5-HT syndrome (m5-HT); format: in vivo, mouse; conditions: m5-HT, p.o. 0 min
Procedure: 50 mg/kg nialamide s.c. t=120 min. Compound (I) p.o. t=0. n=4.
(§1) Compound (I) was tested in a classical test often used to measure the ability of a compound to block the reuptake of 5-HT in vivo: nialamide-induced 5-HT syndrome (m5-HT). In addition, compound (I) was tested in a locomotor activity paradigm (mLA) as a measure of its ability to block the reuptake of DA and therefore induce motility. It is generally accepted that >60% DA transporter blockade is needed to induce increased motility in this test.

[2] = system: NMRI mice; assay: Locomotor activity (mLA); format: in vivo, mouse; conditions: mLA; for MED: p.o. 0 min
Procedure: FIG. 8: The effects of compound (I) on locomotor activity. Compound (I) p.o. in NMRI mice. TSE Motility.
as §1

[3] = system: NMRI mice; assay: Mouse forced swim test (mFST); format: in vivo; conditions: mFST (NMRI), p.o. 60 min
Procedure: Compound (I) was tested in two of the most widely used behavioural screens for predicting antidepressant effects in the clinic: the mouse forced swim test (mFST) and mouse tail suspension test (mTST).
In order to further characterize the role played by 5-HT and DA-ergic neurotransmission in the antidepressant-like effects of compound (I), the potential involvement of 5-HT1A and D1 receptors was investigated in the mFST.

[4] = system: C57 mice; assay: Mouse tail suspension test (mTST); format: in vivo; conditions: i.p. 30 min
Procedure: C57 males, 25-28 g, Taconic, 16/8-06. Mice acclimatized to ground floor 5 days before testing. Mice saline injected once a day twice before test day. 22° C., N=7-8.

[5] = system: mice; assay: Mouse zero maze (mZM); format: in vivo; conditions: mZero maze, p.o., 7 days OD
Procedure: Mice were treated (peroral administration) for 7 days with either, vehicle, duloxetine (10 mg/kg), and compound I (0.1 mg/kg, 1 mg/kg, and 3 mg/kg) (n=8 in each group).
(§2) Compound (I) was tested in three widely used behavioural screens for predicting anxiolytic effects in the clinic: the mouse marble burying test (mMB), mouse zero maze (mZM) and mouse stress-induced hyperthermia test (mSIH).

[6] = system: NMRI mice; assay: Mouse stress-induced hyperthermia test (mSIH); format: in vivo; conditions: mSIH, p.o., −60 min
Procedure: FIG. 14: Stress-induced hyperthermia. When mice are confronted with a stress-full event, the body temperature rises.
as §2

[7] = system: NMRI mice; assay: Mouse marble burying test (mMB); format: in vivo; conditions: Marble burying, p.o., −60 min
Procedure: FIG. 13: Marble burying. In the marble-burying test mice exposed to a novel object (marbles) bury them in the sawdust floor covering. Compounds showing anxiolytic-like activity decrease the number of buried marbles at non-sedative doses. […] The number of marbles covered by sawdust was counted at the end of a 60-min session.
as §2

[8] = biological target: T1, dopamine transporter (DAT) (Mus musculus, UniProt Q61327); assay: MPTP model of DAT inhibition (striatal dopamine depletion); format: in vivo, C57 mouse; design: Dopamine Mean ± SEM / DOPAC Mean ± SEM / HVA Mean ± SEM: unit not given here; conditions: MPTP 25 mg/kg s.c. alone
T1 construct: in vivo DAT transporter occupancy (open bars) in mouse striatum; from tissue; host or cells: mouse striatum (in vivo; C57 mice in the MPTP model)
T1 sequence (Q61327 whole entry): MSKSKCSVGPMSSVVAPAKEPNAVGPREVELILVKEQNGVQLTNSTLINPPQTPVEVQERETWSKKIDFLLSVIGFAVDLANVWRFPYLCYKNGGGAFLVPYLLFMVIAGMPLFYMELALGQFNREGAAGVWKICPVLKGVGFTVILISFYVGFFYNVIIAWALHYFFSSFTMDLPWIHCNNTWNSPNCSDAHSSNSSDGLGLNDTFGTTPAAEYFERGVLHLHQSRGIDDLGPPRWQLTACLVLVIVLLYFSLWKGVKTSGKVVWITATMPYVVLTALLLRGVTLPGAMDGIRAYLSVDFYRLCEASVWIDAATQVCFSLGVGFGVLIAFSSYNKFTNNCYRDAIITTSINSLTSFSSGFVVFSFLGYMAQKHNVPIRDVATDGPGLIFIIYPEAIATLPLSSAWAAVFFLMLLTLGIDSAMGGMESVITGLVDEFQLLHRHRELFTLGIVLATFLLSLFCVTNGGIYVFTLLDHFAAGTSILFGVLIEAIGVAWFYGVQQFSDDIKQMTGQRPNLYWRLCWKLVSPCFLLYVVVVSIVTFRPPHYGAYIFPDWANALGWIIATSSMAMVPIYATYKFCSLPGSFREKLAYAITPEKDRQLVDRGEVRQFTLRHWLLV
Source text: In this model compound (I) induced protection against the dopamine depletion induced by the entry of the MPTP metabolite MPP+ into the dopamine terminals of the mouse C57 striatal tissue.

SMILES | MED [1] [mg/kg] | MED [2] [mg/kg] | MED [3] [mg/kg] | MED [4] [mg/kg] | MED [5] [mg/kg] | Effect on locomotor activity ([2]; p.o.) | MED [6] [mg/kg] | MED [7] [mg/kg] | DOPAC Mean ± SEM [8] | HVA Mean ± SEM [8] | Dopamine Mean ± SEM ([8]; mouse striatal tissue)
CN(C)CCCC1(c2ccc(F)cc2)OCc2cc(C#N)ccc21 (stereo not drawn) [Citalopram, reference compound] | 10 | >60 | 10 | <5 |  |  |  |  |  |  | 
CNCC[C@H](Oc1cccc2ccccc12)c1cccs1 [Duloxetine, reference compound] | 10 | >60 | 30 | 10 | <10 | without effect | >30 | 10 |  |  | 
CN1CC=C(c2ccccc2)CC1 [MPTP, reference compound] |  |  |  |  |  |  |  |  | 1 ± 0.2 | 0.7 ± 0.1 | 4.2 ± 0.6
